Data from PubChem BioAssay (NCI).
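Results reflect a 48-hour exposure of cells in 96-well plates to compound at five concentrations. The concentration for full growth arrest is given as TGI.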

What was measured:
Experiment in all cases: growth of human tumour cells (NCI), 48 h
[1] = test system: LOX IMVI melanoma
[2] = test system: M14 melanoma
[3] = test system: NCI-H522 lung
[4] = test system: HCT-15 colon
[5] = test system: MALME-3M melanoma
[6] = test system: SK-MEL-2 melanoma
[7] = test system: OVCAR-8 ovarian
[8] = test system: UO-31 renal
[9] = test system: IGROV1 ovarian
[10] = test system: SW-620 colon
[11] = test system: LXFL 529 NSCLC
[12] = test system: KM20L2 colon
[13] = test system: DMS 273 small cell lung
[14] = test system: NCI-H460 lung
[15] = test system: HT29 colon
[16] = test system: RPMI-8226 leukemia
[17] = test system: SF-268 CNS
[18] = test system: KM12 colon
[19] = test system: SF-295 CNS
[20] = test system: SNB-75 CNS
[21] = test system: M19-MEL melanoma
[22] = test system: DLD-1 colon
[23] = test system: HOP-62 NSCLC
[24] = test system: ACHN renal
[25] = test system: DMS 114 small cell lung
[26] = test system: SNB-78 CNS
[27] = test system: SF-539 CNS
[28] = test system: HL-60(TB) leukemia
[29] = test system: UACC-62 melanoma
[30] = test system: OVCAR-4 ovarian
[31] = test system: CAKI-1 renal
[32] = test system: TK-10 renal
[33] = test system: SK-MEL-5 melanoma
[34] = test system: OVCAR-5 ovarian
[35] = test system: SK-OV-3 ovarian
[36] = test system: HOP-92 NSCLC
[37] = test system: SN12C renal
[38] = test system: 786-0 renal
[39] = test system: CCRF-CEM leukemia
[40] = test system: MOLT-4 leukemia
[41] = test system: U251 CNS
[42] = test system: HOP-18 NSCLC
[43] = test system: SNB-19 CNS
[44] = test system: UACC-257 melanoma
[45] = test system: RXF 393 renal
[46] = test system: A549 NSCLC
[47] = test system: NCI-H226 lung
[48] = test system: A498 renal
[49] = test system: K-562 leukemia
[50] = test system: HCT-116 colon
[51] = test system: HCC-2998 colon
[52] = test system: COLO 205 colon
[53] = test system: OVCAR-3 ovarian
[54] = test system: EKVX NSCLC
[55] = test system: NCI-H23 lung

Measured: TGI

N#CC1(C#N)C=CC(=C2OCC3CCCN23)C=C1 (stereo not given)
> 100 µM: [1] | [2] | [3] | [4] | [5] | [6] | [7] | [8] | [9] | [10] | [11] | [12] | [13] | [14] | [15] | [16] | [17] | [18] | [19] | [20] | [21] | [22] | [23] | [24] | [25] | [26] | [27] | [28] | [29] | [30] | [31] | [32] | [33] | [34] | [35] | [36] | [37] | [38] | [39] | [40] | [41] | [42] | [43] | [44] | [45] | [46] | [47] | [48] | [49] | [50] | [51] | [52]

COC(=O)c1c(-c2cc(OC)c(OC)c(OC)c2)oc2ccccc2c1=O
> 100 µM: [1] | [2] | [3] | [4] | [5] | [6] | [7] | [8] | [9] | [10] | [11] | [12] | [13] | [14] | [15] | [16] | [18] | [53] | [19] | [20] | [21] | [22] | [23] | [24] | [26] | [27] | [54] | [55] | [28] | [29] | [30] | [31] | [32] | [33] | [34] | [35] | [36] | [37] | [38] | [39] | [40] | [41] | [42] | [43] | [44] | [45] | [46] | [47] | [48] | [49] | [50] | [51] | [52]
